Our source for the combined antiviral activity and combined cytotoxic activity values is EP1977759A1, “Pharmaceutical composition comprising a cytokine” (4SC AG, priority 2007, dated 2008).

Data set [1] deals with bovine viral diarrhea virus (BVDV) NADL strain. Put plainly: BVDV antiviral efficacy evaluation, drug-drug combination analysis (checkerboard, MTS staining, MacSynergy II). The format is cell-based. The following applies: in combination with TNF-α; MDBK cells with BVDV virus; interaction by Bliss independence (MacSynergy II). Here is the method: (§1) The substances were solubilized in DMSO. […]
(§2) The bovine viral diarrhea virus (BVDV) NADL strain antiviral evaluation assay and drug-drug combination analysis was performed as described in Antimicro. Agents Chemother. 2003; 47: 2293-8. BVDV is frequently employed as a hepatitis C virus surrogate model in the study of antiviral agents (Antiviral Res. 2003; 60: 1-15). Madin-Darby bovine kidney cells were trypsinized, pelleted, counted and resuspended at 1×10^4/well in tissue culture medium in 96-well flat bottom, tissue culture plates in volume of 100µl per well. […]
(§3) At assay termination, the assay plates were stained with the soluble tetrazolium-based dye MTS (CellTiter Reagent Promega) to determine cell viability and quantify compound toxicity. MTS is metabolized y the mitochondrial enzymes of metabolically active cells to yield a soluble formazan product, allowing the rapid quantitative analysis of cell viability and compound cytotoxicity. […] Adhesive sealers were used in place of the lids, the sealed plate was inverted several times to mix the soluble formazan product and the plate was read spectrophotometrically at 490 nm and 650 nm with a Molecular Devices Vmax plate reader. […]
(§4) Theoretical additive values are calculated from the dose response curves for each substance used individually. […]

The test system of data set [2] is Madin-Darby bovine kidney cells. Nature of the data set: BVDV assay, cytotoxicity of the drug-drug combination (MTS staining for cell viability). The format is cell-based. Particulars: in combination with TNF-α; MDBK cells; interaction by Bliss independence (MacSynergy II). Here is the method:
as §1, §2, §3, §4

As to `O=C(c1ccccc1)c1ccc2nc(NC(=O)c3csc(C4CCN(c5ncnc6ccsc56)CC4)n3)[nH]c2c1` [Compound 273, 2-(1-Thieno[3,2-d]pyrimidin-4-yl-piperidin-4-yl)-thiazole-4-carboxylic acid (5-b enzoyl-1H-benzaimidazol-2-yl)-amide], the combined antiviral activity result in data set [1] was “highly synergistic behaviour”. Besides, in data set [2], the combined cytotoxic activity result is given as “highly antagonistic behaviour”.
